Patent US5756545A, “Biphenysulfonamide matrix metal alloproteinase inhibitors” (priority 1997, dated 1998)

How the values were obtained:
Type in all cases: biochemical
[1] = biological target: gelatinase A-catalytic domain; experiment: gelatinase A catalytic domain hydrolysis of thiopeptolide, GA CD (T); conditions: thiopeptolide substrate
From the text: (§1) Table I below presents inhibitory activity for representative invention compounds of Formula I. In the table, GA CD (T) refers to gelatinase A-catalytic domain hydrolysis of thiopeptolide substrate; GA CD (Gel) refers to gelatinase A-catalytic domain hydrolysis of gelatin substrate; SCD (T) refers to stromelysin catalytic domain hydrolysis of thiopeptolide.

[2] = biological target: gelatinase A-catalytic domain; experiment: gelatinase A catalytic domain hydrolysis of gelatin, GA CD (Gel); conditions: gelatin substrate
From the text: as §1

full-length collagenase = biological target: T1, full-length collagenase (Homo sapiens, UniProt P03956); experiment: full-length collagenase hydrolysis of thiopeptolide substrate (FLC); conditions: full-length enzyme
T1 construct: full-length collagenase hydrolysis of thiopeptolide substrate (FLC)
T1 sequence (P03956 100-469): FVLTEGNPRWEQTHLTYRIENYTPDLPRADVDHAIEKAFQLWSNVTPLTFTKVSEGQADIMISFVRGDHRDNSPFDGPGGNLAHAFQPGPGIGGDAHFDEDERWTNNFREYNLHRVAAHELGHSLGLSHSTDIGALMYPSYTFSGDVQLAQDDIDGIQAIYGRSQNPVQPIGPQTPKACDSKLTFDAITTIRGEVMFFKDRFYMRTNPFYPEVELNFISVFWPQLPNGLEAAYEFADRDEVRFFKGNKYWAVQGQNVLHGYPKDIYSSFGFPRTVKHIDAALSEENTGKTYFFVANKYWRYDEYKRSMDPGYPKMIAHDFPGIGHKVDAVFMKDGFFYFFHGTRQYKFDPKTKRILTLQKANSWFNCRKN
From the text: The compounds were additionally evaluated for their ability to inhibit full-length collagenase hydrolysis of thiopeptolide substrate (FLC) and full-length gelatinase B (FLGB) hydrolysis of thiopeptolide.

[3] = biological target: T2, stromelysin catalytic domain (Homo sapiens, UniProt P08254); experiment: stromelysin catalytic domain hydrolysis of thiopeptolide, SCD (T); conditions: thiopeptolide substrate
T2 construct: stromelysin catalytic domain hydrolysis of thiopeptolide
T2 sequence (P08254 100-272 limits assumed): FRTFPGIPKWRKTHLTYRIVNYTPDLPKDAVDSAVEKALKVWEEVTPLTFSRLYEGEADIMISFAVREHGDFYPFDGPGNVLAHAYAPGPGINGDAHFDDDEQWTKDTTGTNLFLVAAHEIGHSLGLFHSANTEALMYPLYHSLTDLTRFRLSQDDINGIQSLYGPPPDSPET
From the text: as §1

IC50 [1] | IC50 [2] | IC50 (full-length collagenase) | SMILES | IC50 [3]
0.002 µM | 0.014 µM |  | COc1ccc(-c2ccc(S(=O)(=O)N[C@H](C(=O)O)C(C)C)cc2)cc1 [Example 15, (S)-2-(4'-Methoxy-biphenyl-4-sulfonylamino)-3-methyl-butyric Acid] | 
0.015 µM | 0.029 µM |  | CC(C)C[C@H](NS(=O)(=O)c1ccc(-c2ccc(Br)cc2)cc1)C(=O)O [Example 14, (S)-2-(4'-Bromo-biphenyl-4-sulfonylamino)-4-methyl-pentanoic Acid] | 
0.019 µM | 0.022 µM |  | C[C@H](NS(=O)(=O)c1ccc(-c2ccc(Br)cc2)cc1)C(=O)O [Example 13, (S)-2-(4'-Bromo-biphenyl-4-sulfonylamino)-propionic Acid] | 
0.051 µM | 0.094 µM |  | CC(C)[C@H](NS(=O)(=O)c1ccc(-c2ccc(F)cc2)cc1)C(=O)O [Example 16, (S)-2-(4'-Fluoro-biphenyl-4-sulfonylamino)-3-methyl-butyric Acid] | 
0.731 µM | 1.3 µM |  | CC(C)[C@H](NS(=O)(=O)c1ccc(-c2cccc(Br)c2)cc1)C(=O)O [Example 7, (S)-2-(3'-Bromo-biphenyl-4-sulfonylamino)-3-methyl-butyric Acid] | 
0.026 µM | 0.045 µM |  | O=C(O)[C@H](Cc1ccccc1)NS(=O)(=O)c1ccc(-c2ccc(Br)cc2)cc1 [Example 10, (S)-2-(4'-Bromo-biphenyl-4-sulfonylamino)-3-phenyl-propionic Acid] | 
0.021 µM | 0.079 µM |  | O=C(O)CNS(=O)(=O)c1ccc(-c2ccc(Br)cc2)cc1 [Example 12, (4'-Bromo-biphenyl-4-sulfonylamino)-acetic Acid] | 
0.032 µM | 0.157 µM |  | CC(C)[C@H](NS(=O)(=O)c1ccc(-c2ccc(C#N)cc2)cc1)C(=O)O [Example 5, (S)-2-(4'-Cyano-biphenyl-4-sulfonylamino)-3-methyl-butyric Acid] | 
0.006 µM | 0.019 µM |  | CC(C)[C@H](NS(=O)(=O)c1ccc(-c2ccc(Br)cc2F)cc1)C(=O)O [Example 8, (S)-2-(4'-Bromo-2'-fluoro-biphenyl-4-sulfonylamino)-3-methyl-butyric Acid] | 
 |  | 7.5 µM | CC(C)[C@H](NS(=O)(=O)c1ccc(-c2ccc(Cl)cc2)cc1)C(=O)O [Example 2, (S)-2-(4'-Chloro-biphenyl-4-sulfonylamino)-3-methyl-butyric Acid] | 
 |  |  | CC(C)[C@H](NS(=O)(=O)c1ccc(-c2ccc(C(F)(F)F)cc2)cc1)C(=O)O [Example 19, (S)-3-Methyl-2-(4'-trifluoromethyl-biphenyl-4-sulfonylamino)-butyric Acid] | 0.014 µM
